Results taken from patent publication US20140271770A1, “Methods And Compositions For Treating Post-Operative Pain Comprising Clonidine” (WARSAW ORTHOPEDIC, INC., priority 2013, published 2014).

Experiment: 14 day pharmacokinetic study, clonidine strips implanted in intermuscular pockets, plasma clonidine by LC/MS/MS
Type: in vivo, beagle dogs
Details: mannitol as excipient in the clonidine strips
Excerpt: Clonidine strips were surgically implanted in intermuscular pockets in beagle dogs to evaluate the in vivo clonidine elution and plasma clonidine concentrations. Four male and four female dogs were divided into two groups of two (per sex). Group 1 received 6 strips of formulation 640-51 (5% clonidine HCl, 5% mannitol, 60:40 LCL 5A polymer, micronized API) and Group 2 received 6 strips of formulation 640-73 (4% clonidine HCl, 7.5% mannitol, 60:40 LCL 5A polymer, milled 25 micron API).
Blood was drawn at 30 minutes and 1, 2, 4, 8, and 24 hours post-implant. Blood was then drawn daily through day 7, and again at days 10 and 14. The blood was processed to plasma and the clonidine concentration in the plasma was determined by high performance liquid chromatography and tandem mass spectroscopy (LC/MS/MS).

effect on drug release within the first 72 hours: speeds up drug release
Compound: OC[C@@H](O)[C@@H](O)[C@H](O)[C@H](O)CO [Mannitol]
